Reference: ChEMBL document CHEMBL1141299, “Hologram QSAR model for the prediction of human oral bioavailability” (Bioorg Med Chem, 2007)

Tests used:
Homo sapiens = assay: (§1) Oral bioavailability in human; conditions: in vivo
[1] = as §1; conditions: in vivo

Row | SMILES | bioavailability ([1]; F) [%] | further results
1 | O=C(NC[C@H]1CCCCN1)c1cc(OCC(F)(F)F)ccc1OCC(F)(F)F (stereo in doubt; 083) [(R)-FLECAINIDE] |  | F (Homo sapiens): 95%
2 | C[C@H]1COc2c(N3CCN(C)CC3)c(F)cc3c(=O)c(C(=O)O)cn1c23.C[C@H]1COc2c(N3CCN(C)CC3)c(F)cc3c(=O)c(C(=O)O)cn1c23.O (stereo in doubt; 162) [LEVOFLOXACIN] |  | F (Homo sapiens): 97.5%
3 | O=C(NC[C@H]1CCCCN1)c1cc(OCC(F)(F)F)ccc1OCC(F)(F)F (stereo in doubt; 268) [(R)-FLECAINIDE] |  | F (Homo sapiens): 70%
4 | C[C@H](N)Cc1cccc(C(F)(F)F)c1 [NORDEXFENFLURAMINE] |  | bioavailability [1]: 85%
5 | C#C[C@]1(O)CC[C@H]2[C@@H]3CCC4=CC(=O)CC[C@@H]4[C@H]3CC[C@@]21C [NORETHINDRONE] | 64 | 
6 | CNC/C=C(\c1ccc(Br)cc1)c1cccnc1 [NORZIMELIDINE] | 66 | 
7 | CCCc1nc(C(C)(C)O)c(C(=O)O)n1Cc1ccc(-c2ccccc2-c2nnn[nH]2)cc1 [OLMESARTAN] | 26 | 
8 | CCOC(=O)C1=C[C@@H](OC(CC)CC)[C@H](NC(C)=O)[C@@H](N)C1 [OSELTAMIVIR] |  | bioavailability [1]: 75%
9 | CN(C)[C@@H]1C(O)=C(C(N)=O)C(=O)[C@@]2(O)C(O)=C3C(=O)c4c(O)cccc4[C@@](C)(O)[C@H]3[C@H](O)[C@@H]12 [OXYTETRACYCLINE] | 58 | 
10 | COc1ccnc(C[S+]([O-])c2nc3ccc(OC(F)F)cc3[nH]2)c1OC (centres undefined) [PANTOPRAZOLE] | 77 | 
11 | CC1(C)S[C@@H]2[C@H](NC(=O)Cc3ccccc3)C(=O)N2[C@H]1C(=O)O [PENICILLIN G] | 22.5 | 
12 | c1ccc(C2(N3CCCCC3)CCCCC2)cc1 [PHENCYCLIDINE] |  | bioavailability [1]: 72%
13 | CCC1(c2ccccc2)C(=O)NC(=O)NC1=O [PHENOBARBITAL] |  | bioavailability [1]: 96%
14 | CCC(C(N)=O)(C(N)=O)c1ccccc1 [PHENYLETHYLMALONAMIDE] |  | bioavailability [1]: 91%
15 | O=C1NC(=O)C(c2ccccc2)(c2ccccc2)N1 [PHENYTOIN] | 90 | 
16 | CNC(=O)Oc1ccc2c(c1)[C@]1(C)CCN(C)[C@@H]1N2C [PHYSOSTIGMINE] |  | bioavailability [1]: 6%
17 | CN(C)S(=O)(=O)c1ccc2c(c1)N(CCCN1CCC(CCO)CC1)c1ccccc1S2 [PIPOTIAZINE] | 26 | 
18 | O=C(O)Cc1nn(-c2ccc(F)cc2)cc1-c1ccc(Cl)cc1 [PIRAZOLAC] | 93.5 | 
19 | CN1C(C(=O)Nc2ccccn2)=C(O)c2ccccc2S1(=O)=O [PIROXICAM] | 100 | 
20 | CC[C@H](C)C(=O)O[C@H]1C[C@H](O)C=C2C=C[C@H](C)[C@H](CC[C@@H](O)C[C@@H](O)CC(=O)O)[C@H]21 [PRAVASTATIN] | 17 | 
21 | COc1cc2nc(N3CCN(C(=O)c4ccco4)CC3)nc(N)c2cc1OC [PRAZOSIN] | 68 | 
22 | C[C@]12C=CC(=O)C=C1CC[C@@H]1[C@@H]2[C@@H](O)C[C@@]2(C)[C@H]1CC[C@]2(O)C(=O)COP(=O)(O)O [PREDNISOLONE PHOSPHORIC ACID] | 82 | 

Row | SMILES | bioavailability ([1]; F) [%] | further results
23 | C[C@]12C=CC(=O)C=C1CC[C@@H]1[C@@H]2C(=O)C[C@@]2(C)[C@H]1CC[C@]2(O)C(=O)CO [PREDNISONE] | 80 | 
24 | CCC1(c2ccccc2)C(=O)NCNC1=O [PRIMIDONE] | 92 | 
25 | CCN(CC)CCNC(=O)c1ccc(N)cc1 [PROCAINAMIDE] | 83 | 
26 | CCCc1cc(=O)[nH]c(=S)[nH]1 [PROPYLTHIOURACIL] | 78 | 
27 | C[C@@H]1O[C@@H](O[C@@H]2C=C3CC[C@@H]4[C@H](CC[C@]5(C)[C@@H](c6ccc(=O)oc6)CC[C@]45O)[C@@]3(C)CC2)[C@H](O)[C@H](O)[C@H]1O [PROSCILLARIDIN] |  | bioavailability [1]: 7%
28 | CNCCCC1c2ccccc2C=Cc2ccccc21 [PROTRIPTYLINE] | 85 | 
29 | C=C[C@H]1C[N@@]2CC[C@H]1C[C@@H]2[C@@H](O)c1ccnc2ccc(OC)cc12 [QUINIDINE] | 75 | 
30 | CC(C)(C)NC[C@@H](O)COc1cccc2c1C[C@H](O)[C@H](O)C2 [R-NADOLOL] | 34 | 
31 | O=C(c1ccc(OCCN2CCCCC2)cc1)c1c(-c2ccc(O)cc2)sc2cc(O)ccc12 [RALOXIFENE] | 2 | 
32 | CCOc1cc(CC(=O)N[C@@H](CC(C)C)c2ccccc2N2CCCCC2)ccc1C(=O)O [REPAGLINIDE] | 56 | 
33 | NC(=O)c1ncn([C@@H]2O[C@H](CO)[C@@H](O)[C@H]2O)n1 [RIBAVIRIN] |  | bioavailability [1]: 64%
34 | CO[C@H]1/C=C/O[C@@]2(C)Oc3c(C)c(O)c4c(O)c(c(/C=N/N5CCN(C)CC5)c(O)c4c3C2=O)NC(=O)/C(C)=C\C=C\[C@H](C)[C@H](O)[C@@H](C)[C@@H](O)[C@@H](C)[C@H](OC(C)=O)[C@@H]1C [RIFAMPIN] | 88.8 | 
35 | Cc1nc2n(c(=O)c1CCN1CCC(c3noc4cc(F)ccc34)CC1)CCCC2 [RISPERIDONE] |  | bioavailability [1]: 70%
36 | CN(C)CCc1c[nH]c2ccc(Cn3cncn3)cc12 [RIZATRIPTAN] | 45 | 
37 | CS(=O)(=O)c1ccc(C2=C(c3ccccc3)C(=O)OC2)cc1 [ROFECOXIB] | 93 | 
38 | CCCN(CCC)CCc1cccc2c1CC(=O)N2 [ROPINIROLE] | 55 | 
39 | CC(C)(C)NC[C@H](O)COc1cccc2c1C[C@H](O)[C@H](O)C2 [S-NADOLOL] | 34 | 
40 | Cc1cccc(C)c1NC(=O)[C@H](C)N [S-TOCAINIDE] | 89 | 
41 | O=C1NS(=O)(=O)c2ccccc21 [SACCHARIN] | 84 | 
42 | CO[C@H]1C[C@@H]2CC[C@@H](C)[C@@](O)(O2)C(=O)C(=O)N2CCCC[C@H]2C(=O)O[C@H]([C@H](C)C[C@@H]2CC[C@@H](O)[C@H](OC)C2)CC(=O)[C@H](C)/C=C(\C)[C@@H](O)[C@@H](OC)C(=O)[C@H](C)C[C@H](C)/C=C/C=C/C=C/1C [SIROLIMUS] | 14 | 
43 | CC(=O)S[C@@H]1CC2=CC(=O)CC[C@]2(C)[C@H]2CC[C@@]3(C)[C@@H](CC[C@@]34CCC(=O)O4)[C@H]12 [SPIRONOLACTONE] | 25 | 
44 | Cc1cn([C@H]2C=C[C@@H](CO)O2)c(=O)[nH]c1=O [STAVUDINE] | 82 | 

Row | SMILES | bioavailability ([1]; F) [%] | further results
45 | C=CC[C@@H]1/C=C(\C)C[C@H](C)C[C@H](OC)[C@H]2O[C@@](O)(C(=O)C(=O)N3CCCC[C@H]3C(=O)O[C@H](/C(C)=C/[C@@H]3CC[C@@H](O)[C@H](OC)C3)[C@H](C)[C@@H](O)CC1=O)[C@H](C)C[C@@H]2OC [TACROLIMUS ANHYDROUS] | 17 | 
46 | C[C@@H](C(=O)O)c1ccc(-c2ccccc2)c(F)c1 [TARENFLURBIL] | 92 | 
47 | Cc1scc2c1N(C(=O)CN1CCN(C)CC1)c1ccccc1NC2=O [TELENZEPINE] | 54 | 
48 | CC[C@H]1OC(=O)[C@H](C)C(=O)[C@H](C)[C@@H](O[C@@H]2O[C@H](C)C[C@H](N(C)C)[C@H]2O)[C@](C)(OC)C[C@@H](C)C(=O)[C@H](C)[C@H]2N(CCCCn3cnc(-c4cccnc4)c3)C(=O)O[C@]12C [TELITHROMYCIN] | 57 | 
49 | C[C@]12CC[C@H]3[C@@H](CCC4=CC(=O)CC[C@@]43C)[C@@H]1CC[C@@H]2O [TESTOSTERONE] |  | bioavailability [1]: 7%
50 | CN(C)[C@@H]1C(O)=C(C(N)=O)C(=O)[C@@]2(O)C(O)=C3C(=O)c4c(O)cccc4[C@@](C)(O)[C@H]3C[C@@H]12 [TETRACYCLINE] | 77 | 
51 | Cn1c(=O)c2[nH]cnc2n(C)c1=O.O [THEOPHYLLINE] |  | bioavailability [1]: 98.8%
52 | CCCCNC(=O)NS(=O)(=O)c1ccc(C)cc1 [TOLBUTAMIDE] | 85 | 
53 | CC1(C)O[C@@H]2[C@@H](CO[C@@]3(COS(N)(=O)=O)OC(C)(C)O[C@@H]23)O1 [TOPIRAMATE] | 70 | 
54 | CC[C@@]1(O)C(=O)OCc2c1cc1n(c2=O)Cc2cc3c(CN(C)C)c(O)ccc3nc2-1 [TOPOTECAN] | 32 | 
55 | Cc1cccc(Nc2ccncc2S(=O)(=O)NC(=O)NC(C)C)c1 [TORSEMIDE] | 91 | 
56 | COc1cccc([C@@]2(O)CCCC[C@@H]2CN(C)C)c1 [TRAMADOL] |  | bioavailability [1]: 75%
57 | Cc1nnc2n1-c1ccc(Cl)cc1C(c1ccccc1Cl)=NC2 [TRIAZOLAM] |  | bioavailability [1]: 44%
58 | COc1cc(Cc2cnc(N)nc2N)cc(OC)c1OC [TRIMETHOPRIM] | 63 | 
59 | O=C(O[C@H]1C[C@H]2CC[C@@H](C1)[N+]21CCCC1)C(O)(c1ccccc1)c1ccccc1 [TROSPIUM] |  | bioavailability [1]: 9.6%
60 | CCCC(CCC)C(=O)O [VALPROIC ACID] | 90 | 
61 | CCN(C(C)=O)c1cccc(-c2ccnc3c(C#N)cnn23)c1 [ZALEPLON] |  | bioavailability [1]: 30%
62 | Cc1cn([C@H]2C[C@H](N=[N+]=[N-])[C@@H](CO)O2)c(=O)[nH]c1=O [ZIDOVUDINE] | 64 | 
63 | O=C1Cc2cc(CCN3CCN(c4nsc5ccccc45)CC3)c(Cl)cc2N1 [ZIPRASIDONE] | 60 | 
64 | Cc1ccc(-c2nc3ccc(C)cn3c2CC(=O)N(C)C)cc1 [ZOLPIDEM] |  | bioavailability [1]: 72%
